Results reported in patent US9783556B2, “Kinase inhibitors” (RESPIVERT LIMITED, priority 2012, dated 2017).
pIC50: −log10 of the molar value. Read-outs that look alike come from different tables or passages of the source.

How the values were obtained:
d-U937 cells = test: LPS-induced TNFα/IL-8 release in d-U937 cells; assay type: cell-based; details: Homo sapiens, dU937, LPS-stimulated d-U937 cells
Description: U937 cells, a human monocytic cell line, are differentiated to macrophage-type cells by incubation with phorbol myristate acetate (PMA; 100 ng/mL) for 48 to 72 hr. Cells are pre-incubated with final concentrations of test compound for 2 hr and are then stimulated with 0.1 μg/mL of LPS (from E. Coli: O111:B4, Sigma) for 4 hr. The supernatant is collected for determination of TNFα and IL-8 concentrations by sandwich ELISA (Duo-set, R&D systems). The inhibition of TNFα production is calculated as a percentage of that achieved by 10 μg/mL of BIRB796 at each concentration of test compound by comparison against vehicle control. The relative 50% effective concentration (REC50) is determined from the resultant concentration-response curve. The inhibition of IL-8 production is calculated at each concentration of test compound by comparison with vehicle control. The 50% inhibitory concentration (IC50) is determined from the resultant concentration-response curve.

[1] = molecular target: p38 MAPKα isoform (MAPK14) (Homo sapiens (Human), UniProt Q16539); test: p38 MAPKα enzyme inhibition (Z-LYTE FRET); assay type: biochemical
Description: (§1) The enzyme inhibitory activities of compounds disclosed herein are determined by FRET using synthetic peptides labelled with both donor and acceptor fluorophores (Z-LYTE, Invitrogen Ltd., Paisley, UK).
The following two assay variants can be used for determination of p38 MAPKα inhibition.
The inhibitory activities of test compounds against the p38 MAPKα isoform (MAPK14: Invitrogen), are evaluated indirectly by determining the level of activation/phosphorylation of the down-stream molecule, MAPKAP-K2. The p38 MAPKα protein (80 ng/mL, 2.5 μL) is mixed with the test compound (2.5 μL of either 4 μg/mL, 0.4 μg/mL, 0.04 μg/mL or 0.004 μg/mL) for 2 hr at RT. […] The mixture is incubated for 1 hr at RT. Development reagent (protease, 5 μL) is added for 1 hr prior to detection in a fluorescence microplate reader (Varioskan® Flash, ThermoFisher Scientific).
This method follows the same steps as Method 1 above, but utilises a higher concentration of the p38 MAPKα protein (2.5 μL of 200 ng/mL protein instead of 2.5 μL of 80 ng/mL protein) for mixing with the test compound.
(§2) In all cases, the site-specific protease cleaves non-phosphorylated peptide only and eliminates the FRET signal. Phosphorylation levels of each reaction are calculated using the ratio of coumarin emission (donor) over fluorescein emission (acceptor), for which high ratios indicate high phosphorylation and low ratios indicate low phosphorylation levels. The percentage inhibition of each reaction is calculated relative to non-inhibited control and the 50% inhibitory concentration (IC50 value) is then calculated from the concentration-response curve.

PBMCs [2] = test: IL-2 and IFN gamma release in CD3/CD28 stimulated PBMC cells; assay type: cell-based; details: Homo sapiens, IL-2, read-out: IC50 Values for Inhibition of Cytokine Release PBMCs IL-2
Description: PBMCs from healthy subjects are separated from whole blood using a density gradient (Lymphoprep, Axis-Shield Healthcare). Cells are added to a 96 well plate pre-coated with a mixture of CD3/CD38 monoclonal antibodies (0.3 μg/mL eBioscience and 3 μg/mL BD Pharmingen respectively). Compound at the desired concentration is then added to the wells and the plate left for 3 days under normal tissue culture conditions. Supernatants are harvested and IL-2 and IFN gamma release determined by Sandwich ELISA (Duo-set, R&D System). The IC50 is determined from the dose response curve.

c-Src = c-Src (Homo sapiens (Human), UniProt P12931); test: c-Src enzyme inhibition (Z-LYTE FRET); assay type: biochemical
Description: as §1
(§3) The inhibitory activities of compounds of the invention against c-Src and Syk enzymes (Invitrogen), are evaluated in a similar fashion to that described hereinabove. The relevant enzyme (3000 ng/mL or 2000 ng/mL respectively, 2.5 μL) is incubated with the test compound (either 4 μg/mL, 0.4 μg/mL, 0.04 μg/mL, or 0.004 μg/mL, 2.5 μL each) for 2 hr at RT. The FRET peptides (8 μM, 2.5 μL), and appropriate ATP solutions (2.5 μL, 800 μM for c-Src, and 60 μM ATP for Syk) are then added to the enzymes/compound mixtures and incubated for 1 hr. Development reagent (protease, 5 μL) is added for 1 hr prior to detection in a fluorescence microplate reader (Varioskan® Flash, ThermoFisher Scientific).
as §2

PBMCs [3] = test: LPS-induced TNFα/IL-8 release in PBMC cells; assay type: cell-based; details: Homo sapiens, LPS-stimulated PBMCs
Description: Peripheral blood mononuclear cells (PBMCs) from healthy subjects are separated from whole blood using a density gradient (Lymphoprep, Axis-Shield Healthcare). The PBMCs are seeded in 96 well plates and treated with compounds at the desired concentration for 2 hours before addition of 1 ng/mL LPS (Escherichia Coli 0111:B4 from Sigma Aldrich) for 24 hours under normal tissue culture conditions (37° C., 5% CO2). The supernatant is harvested for determination of IL-8 and TNFα concentrations by sandwich ELISA (Duo-set, R&D systems) and read on the fluorescence microplate reader (Varioskan® Flash, ThermoFisher Scientific). The concentration at 50% inhibition (IC50) of IL-8 and TNFα production is calculated from the dose response curve.

GSK 3α = GSK 3α (Homo sapiens (Human), UniProt P49840); test: GSK 3α enzyme inhibition (Z-LYTE FRET); assay type: biochemical; details: read-out: IC50 Values for Enzyme Inhibition GSK3α
Description: as §1
The following two assay variants can be used for determination of GSK 3α inhibition.
The inhibitory activities of compounds of the invention against the GSK 3α enzyme isoform (Invitrogen), are evaluated by determining the level of activation/phosphorylation of the target peptide. The GSK3-α protein (500 ng/mL, 2.5 μL) is mixed with the test compound (2.5 μL at either 4 μg/mL, 0.4 μg/mL, 0.04 μg/mL, or 0.004 μg/mL) for 2 hr at RT. The FRET peptide (8 μM, 2.5 μL), which is a phosphorylation target for GSK3α, and ATP (40 μM, 2.5 μL) are then added to the enzyme/compound mixture and the resulting mixture incubated for 1 hr. Development reagent (protease, 5 μL) is added for 1 hr prior to detection in a fluorescence microplate reader (Varioskan® Flash, ThermoFisher Scientific).
as §2
This method follows the same steps as Method 1 above, but utilises a shorter period of mixing of the test compound (105 minutes instead of 2 hours) with the GSK3-α protein.

HT29 cells = test: IL-1β-induced IL-8 release in HT29 cells; assay type: cell-based; details: Homo sapiens, HT-29, IL-1β-stimulated HT29 cells, read-out: IC50 Values for Inhibition of Cytokine Release HT29 cells IL-8
Description: HT29 cells, a human colon adenocarcinoma cell line, are plated in a 96 well plate (24 hrs) and pre-treated with compounds at the desired concentration for 2 hours before addition of 5 ng/mL of IL-1β (Abcam) for 24 hours. Supernatants are harvested for IL-8 quantification by Sandwich ELISA (Duo-set, R&D System). The IC50 is determined from the dose response curve.

Syk = Syk (Homo sapiens (Human), UniProt P43405); test: Syk enzyme inhibition (Z-LYTE FRET); assay type: biochemical
Description: as §1, §3, §2

[4] = IL-8, read-out: IC50 Values for Inhibition of Cytokine Release dU937 cells IL-8
[5] = TNFα, method describes REC50 relative to BIRB796, read-out: IC50 Values for Inhibition of Cytokine Release dU937 cells TNFα
[6] = IL-8, read-out: IC50 Values for Inhibition of Cytokine Release PBMCs IL-8
[7] = TNFα, read-out: IC50 Values for Inhibition of Cytokine Release PBMCs TNFα

Sequence of c-Src (P12931 whole entry, looked up): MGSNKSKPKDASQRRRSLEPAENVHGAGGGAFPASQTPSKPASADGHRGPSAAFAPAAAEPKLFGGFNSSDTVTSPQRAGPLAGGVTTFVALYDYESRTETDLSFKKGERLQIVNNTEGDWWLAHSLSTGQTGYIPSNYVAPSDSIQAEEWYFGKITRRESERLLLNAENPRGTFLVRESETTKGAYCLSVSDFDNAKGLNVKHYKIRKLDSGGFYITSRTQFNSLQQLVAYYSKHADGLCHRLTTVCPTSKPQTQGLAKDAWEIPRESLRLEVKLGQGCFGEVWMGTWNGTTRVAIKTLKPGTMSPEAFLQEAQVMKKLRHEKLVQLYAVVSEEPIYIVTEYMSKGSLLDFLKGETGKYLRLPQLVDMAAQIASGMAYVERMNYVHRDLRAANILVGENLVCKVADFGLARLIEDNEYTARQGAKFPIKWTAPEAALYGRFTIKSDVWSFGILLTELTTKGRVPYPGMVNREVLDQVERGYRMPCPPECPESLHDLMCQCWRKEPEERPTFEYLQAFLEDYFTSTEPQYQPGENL
Sequence of p38 MAPKα isoform (MAPK14) (Q16539 whole entry, canonical isoform): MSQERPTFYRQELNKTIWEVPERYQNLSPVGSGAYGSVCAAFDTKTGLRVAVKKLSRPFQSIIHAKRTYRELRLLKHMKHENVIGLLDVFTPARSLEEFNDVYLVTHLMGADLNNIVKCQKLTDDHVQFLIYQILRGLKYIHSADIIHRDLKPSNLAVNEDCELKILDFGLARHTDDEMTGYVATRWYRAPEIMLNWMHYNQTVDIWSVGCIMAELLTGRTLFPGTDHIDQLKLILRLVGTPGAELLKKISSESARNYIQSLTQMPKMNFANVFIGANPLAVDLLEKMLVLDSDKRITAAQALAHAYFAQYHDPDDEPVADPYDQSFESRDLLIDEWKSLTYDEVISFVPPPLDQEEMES
Sequence of GSK 3α (P49840 whole entry): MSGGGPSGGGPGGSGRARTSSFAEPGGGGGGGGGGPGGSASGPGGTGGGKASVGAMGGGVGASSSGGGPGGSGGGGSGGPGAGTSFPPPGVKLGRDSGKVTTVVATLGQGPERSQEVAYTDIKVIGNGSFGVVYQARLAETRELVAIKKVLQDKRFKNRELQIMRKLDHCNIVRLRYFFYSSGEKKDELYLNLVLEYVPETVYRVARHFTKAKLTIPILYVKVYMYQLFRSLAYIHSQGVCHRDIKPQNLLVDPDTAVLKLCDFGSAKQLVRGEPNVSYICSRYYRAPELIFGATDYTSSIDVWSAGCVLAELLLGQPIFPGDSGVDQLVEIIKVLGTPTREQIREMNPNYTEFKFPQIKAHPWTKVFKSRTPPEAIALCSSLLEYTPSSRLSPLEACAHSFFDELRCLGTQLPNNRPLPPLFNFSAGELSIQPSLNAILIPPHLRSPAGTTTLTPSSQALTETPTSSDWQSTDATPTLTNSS

Structure (SMILES)	pIC50 (d-U937 cells; [4])	pIC50 (d-U937 cells; [5])	pIC50 [1]	pIC50 (PBMCs [2])	pIC50 (c-Src)	pIC50 (PBMCs [3]; [6])	pIC50 (PBMCs [3]; [7])	pIC50 (GSK 3α)	pIC50 (HT29 cells)	pIC50 (Syk)
Cc1ccc(-n2nc([Si](C)(C)C)cc2NC(=O)Nc2ccc(Oc3ccnc(Nc4ccc5[nH]ncc5c4)n3)c3ccccc23)cc1 [Example 7, 1-[4-[2-(1H-Indazol-5-ylamino)pyrimidin-4-yl]oxy-1-naphthyl]-3-[2-(p-tolyl)-5-trimethylsilyl-pyrazol-3-yl]urea]	8.07	8.72	6.42	7.32	7.35	7.92	8.48	< 5.00	7.78	6.17
Cc1ccc(-n2nc([Si](C)(C)C)cc2NC(=O)Nc2ccc(Oc3ccnc(Nc4cccc(OCCN5CCOCC5)c4)n3)c3ccccc23)cc1 [Example 6, 1-(4-((2-((3-(2-Morpholinoethoxy)phenyl)amino)pyrimidin-4-yl)oxy)naphthalen-1-yl)-3-(1-(p-tolyl)-3-(trimethylsilyl)-1H-pyrazol-5-yl)urea]	8.74	8.82	6.50	7.80	8.00	8.32	9.15	< 5.70	8.06	8.15
COc1cc(Nc2nccc(Oc3ccc(NC(=O)Nc4cc([Si](C)(C)C)nn4-c4ccc(C)cc4)c4ccccc34)n2)cc(OCCN2CCOCC2)c1 [Example 13, 1-(4-((2-((3-Methoxy-5-(2-morpholinoethoxy)phenyl)amino)pyrimidin-4-yl)oxy)naphthalen-1-yl)-3-(1-(p-tolyl)-3-(trimethylsilyl)-1H-pyrazol-5-yl)urea]	8.85	8.96	< 6.00	8.41	6.77	8.64	–	5.25	8.37	6.97
COc1ccc(-n2nc([Si](C)(C)C)cc2NC(=O)Nc2ccc(Oc3ccnc(Nc4ccccc4)n3)c3ccccc23)cn1 [Example 2, 1-(1-(6-Methoxypyridin-3-yl)-3-(trimethylsilyl)-1H-pyrazol-5-yl)-3-(4-((2-(phenylamino)pyrimidin-4-yl)oxy)naphthalen-1-yl)urea]	8.59	8.74	6.48	6.89	7.03	8.08	8.57	5.49	7.92	< 6.00
Cc1ccc(-n2nc([Si](C)(C)C)cc2NC(=O)Nc2ccc(Oc3ccnc(Nc4cc(C)c5[nH]ncc5c4)n3)c3ccccc23)cc1 [Example 9, 1-(4-((2-((7-Methyl-1H-indazol-5-yl)amino)pyrimidin-4-yl)oxy)naphthalen-1-yl)-3-(1-(p-tolyl)-3-(trimethylsilyl)-1H-pyrazol-5-yl)urea]	8.59	8.92	6.45	7.39	6.87	8.47	–	< 5.00	8.32	6.28
Cc1ccc(-n2nc([Si](C)(C)C)cc2NC(=O)Nc2ccc(Oc3ccnc(Nc4ccc5c(c4)NC(=O)C5)n3)c3ccccc23)cc1 [Example 10, 1-(4-((2-((2-Oxoindolin-6-yl)amino)pyrimidin-4-yl)oxy)naphthalen-1-yl)-3-(1-(p-tolyl)-3-(trimethylsilyl)-1H-pyrazol-5-yl)urea]	8.70	8.80	6.27	6.71	7.72	8.46	–	< 5.00	8.30	6.00
Cc1ccc(-n2nc([Si](C)(C)C)cc2NC(=O)Nc2ccc(Oc3ccnc(Nc4ccccc4)n3)c3ccccc23)cc1 [Example 1, 1-(4-((2-(Phenylamino)pyrimidin-4-yl)oxy)naphthalen-1-yl)-3-(1-(p-tolyl)-3-(trimethylsilyl)-1H-pyrazol-5-yl)urea]	8.34	8.60	6.82	6.56	7.11	7.85	8.55	< 5.00	7.81	< 6.00
C[Si](C)(C)c1cc(NC(=O)Nc2ccc(Oc3ccnc(Nc4ccccc4)n3)c3ccccc23)n(-c2ccc(OCCN3CCOCC3)cc2)n1 [Example 3, 1-(1-(4-(2-Morpholinoethoxy)phenyl)-3-(trimethylsilyl)-1H-pyrazol-5-yl)-3-(4-((2-(phenylamino)pyrimidin-4-yl)oxy)naphthalen-1-yl)urea]	7.74	8.70	6.46	7.11	6.64	8.03	–	5.30	7.87	< 6.00
